The results in this text go back to patent US20070281947A1, “Diarylmethylpiperazines As Prophylactic Or Therapeutic Agents For Viral Myocarditis” (priority 2002, published 2007).

Marks after values point to notes of the source that are not given here.

Holding throughout (format): in vivo
For test [1], the system named is EMC (encephalomyocarditis) virus. Description: Effect on survival rate in a cardiac insufficiency model induced by EMC viral myocarditis in mice. The conditions noted are these: for Survival rate (day 14): DBA/2 mice, EMC virus 1 pfu/mouse i.p., n = 10, control 10%. The procedure: A comparative study was conducted on the effect of cetirizine on survival rate in a cardiac insufficiency model induced by EMC (encephalomyocarditis) viral myocarditis in mice.
28-day-old, male DBA/2 mice were divided into three groups, and EMC virus that causes myocarditis was inoculated intraperitoneally to all groups at 1 pfu/mouse (0.1 ml as phosphate-buffered saline (PBS)) (day 0)(pfu means plaque forming unit). The EMC virus used here was acquired from ATCC (American Type Culture Collection, Manassas, Va., U.S.A.), and said EMC virus was used after diluting with PBS.
Following inoculation, a control group given only distilled water to serve as a control (n=10), a cetirizine low dose group to which cetirizine dissolved in distilled water was administered at a dose of 1 mg/kg/day (n=10), and a cetirizine high dose group to which cetirizine dissolved in distilled water was administered at 10 mg/kg/day (n=10), were forcibly fed once a day using a cannula (Wakenyaku Co., Ltd.) for 14 consecutive days.
The survival rates of the above three groups after 14 days were compared according to the Kaplan-Meier method (documents such as StatView, SAS Institute Inc., Cary, N.C., U.S.A. 1988 can be referred to for further details regarding this Kaplan-Meier method).
Data are obtained by analyzing the results obtained above according to the Kaplan-Meier method.

Test [2] concerns EMC virus. Put plainly: Effect on histopathological changes in heart muscle in a cardiac insufficiency model induced by EMC viral myocarditis in mice. The conditions noted are these: for Heart weight (g) (day 5) / Heart weight/body weight ratio (day 5): DBA/2 mice; for Heart weight (g) (day 5): EMC virus 1 pfu/mouse i.p.; for Heart weight/body weight ratio (day 5): EMC virus. The protocol: A comparative study was conducted on the effect of cetirizine on histopathological changes in heart muscle in a cardiac insufficiency model induced by EMC viral myocarditis in mice.
28-day-old, male DBA/2 mice were divided into three groups, and EMC virus was inoculated intraperitoneally to all groups at 1 pfu/mouse (day 0) in the same manner as Test Example 1.
Following inoculation, similar to Example 1, a control group given only distilled water to serve as a control (n=7), a cetirizine low dose group to which cetirizine was administered at a dose of 1 mg/kg/day (n=10), and a cetirizine high dose group to which cetirizine was administered at 10 mg/kg/day (n=7), were forcibly fed once a day using a cannula in the same manner as Test Example 1 for 5 consecutive days.
After five days, the hearts of the animals were removed, stained with hematoxylin-eosin stain after fixing with formalin, and scored for the two parameters of heart muscle cellular necrosis and inflammatory cellular invasion in the manner described below (documents such as Circulation 1999; 100; 1823-1829 can be referred to for further details regarding this formalin fixation, hematoxylin-eosin staining and scoring). The scores for heart muscle cellular necrosis and inflammatory cellular invasion were evaluated independently by two observers and then averaged. Statistical analysis was performed using the one way analysis of variance (ANOVA) and Fisher's protected least significant difference test (documents such as StatVien, SAS Institute Inc., Cary, N.C., U.S.A., 1998 can be referred to for further details regarding these statistical analysis methods).
1+: Lesions in 25% or less of heart
2+: Lesions in more than 25% to 50% of heart
3+: Lesions in more than 50% to 75% of heart
4+: Lesions in more than 75% to 100% of heart
Data consisting of heart weight, body weight, heart weight/body weight ratio, heart muscle cellular necrosis and inflammatory cellular invasion measured in accordance with that described above is summarized in Table 1 below. Furthermore, the previously described survival rate data and data relating to heart muscle interferon production to be described later are also shown in Table 1.

Test [3] has as its system EMC virus. Description: Effect on intramyocardial cytokine production (ELISA) in a cardiac insufficiency model induced by EMC viral myocarditis in mice. The procedure: A comparative study was conducted on the effect of cetirizine on cytokine production within heart muscle in a cardiac insufficiency model induced by EMC viral myocarditis in mice.
28-day-old, male DBA/2 mice were divided into three groups, and EMC virus was inoculated intraperitoneally to all groups at 1 pfu/mouse (day 0) in the same manner as Example 1.
Following inoculation, similar to Example 1, a control group given only distilled water to serve as a control (n=10), a cetirizine low dose group to which cetirizine was administered at a dose of 1 mg/kg/day (n=10), and a cetirizine high dose group to which cetirizine was administered at 10 mg/kg/day (n=10), were forcibly fed once a day using a cannula in the same manner as Test Example 1 for 7 consecutive days. […]
The protein concentration of each cytokine was measured by ELISA using a commercially available kit (Circulation, 100: 1102-1108, 1999). […]
The total protein concentration of each supernatant was measured by the bicinchoninic acid (BCA) method followed by calculation of the ratio of cytokine concentration to total protein concentration (J. Am. Coll. Cardiol., 33: 1400-1407, 1999). Each cytokine protein concentration was expressed as pg/mg of total protein or ng/mg of total protein. […]

Where [4] appears, read: 1 mg/kg/day oral, 5 days, n = 10, mean ± SD.
Setting [5] is: 10 mg/kg/day oral, 5 days, n = 7, mean ± SD.
The mark [6] stands for this setting: score 0 to 4+ (share of heart with lesions), two observers averaged, 1 mg/kg/day oral, 5 days, n = 10, mean ± SD.

As for `O=C(O)COCCN1CCN(C(c2ccccc2)c2ccc(Cl)cc2)CC1` (racemic) [Cetirizine, (±)-[2-[4-[(4-chlorophenyl)phenylmethyl]-1-piperazinyl]ethoxy]acetic acid], in test [1] (1 and 10 mg/kg/day, 14 days, Kaplan-Meier, p<0.05), the “Effect on survival rate (in words)” value is “improved concentration-dependently”. The “Survival rate (day 14)” value in test [1] (1 mg/kg/day oral, 14 days, 1 mg/kg/day) is given as 40% (4/10); in test [1] (1 mg/kg/day oral, 14 days, listed as cetirizine, 1 mg/kg/day), 40%; in test [1] (10 mg/kg/day oral, 14 days, p < 0.05 vs. control, 10 mg/kg/day) it was 50% (5/10)*; in test [1] (10 mg/kg/day oral, 14 days, p < 0.05 vs. control, listed as cetirizine, 10 mg/kg/day), 50%. In addition, the “Overall efficacy against EMC viral infection / viral myocarditis (in words)” value in test [1] (summary of Examples 1 and 2: improved mortality rate of mice and viral myocarditis) is “effective against viral infection”. Also, the “Histopathological changes of the heart (in words)” value in the test on EMC virus [2] (1 and 10 mg/kg/day, day 5, dose-dependently) is “trend of diminished inflammatory cell invasion and necrosis”. The results for the “Heart weight (g) (day 5)” value in the test with EMC virus [2] (setting [4]) and in the test with EMC virus [2] (setting [5]) were 0.07 ± 0.008 g and 0.60 ± 0.006 g, respectively. Besides, the “Heart weight/body weight ratio (day 5)” value was determined as 5.4 ± 1.1 in the test on EMC virus [2] (setting [4]) and 5.1 ± 0.8 with EMC virus [2] (setting [5]). The “Heart muscle cellular necrosis (day 5)” value with EMC virus [2] (setting [6]) worked out at 1.8 ± 1.0. Further, the “Inflammatory cellular invasion (day 5)” value in the test on EMC virus [2] (setting [6]) turned out to be 2.3 ± 0.8. For the same compound, the “Intramyocardial IFN-γ (in words)” value in the test with EMC virus [3] (7 days after virus inoculation, 1 and 10 mg/kg/day) is given as “concentration-dependent increase”. Further, the “Heart muscle interferon-γ (day 7)” value in the test with EMC virus [3] (ELISA of ventricle homogenate, relative to total protein, 1 mg/kg/day oral, 7 days, n = 10, mean ± SD, p < 0.05 vs. control) stood at 2.2 ± 1.0.
